The source of these data is patent publication US10577346B2, “Benzobicycloalkane derivatives, their preparation and pharmaceutical use thereof” (priority 2016, dated 2020).

As usually defined, the inhibition is the change of the read-out against control, counted positive when it falls. What is called AUC is the area under the concentration-time curve, a measure of exposure. The low end stands for low exposure, the high end for high exposure.

The target of one data set is T1, hERG potassium channel (Homo sapiens, UniProt Q12809).
T1 construct: host or cells: CHO cells stably expressing hERG
In words: Inhibition of hERG potassium ion channel, manual whole-cell patch clamp in CHO hERG cells. In kind it is cell-based. As to conditions: human, CHO cells stably expressing hERG. As to the method: Assay 2: Inhibition of hERG Potassium Ion Channel
2.1.1 Cells used in this experiment were CHO cell lines transfected with hERG cDNA and stably expressing hERG channels (supplied by Sophion Bioscience, Denmark), with cell progeny being P15. Cells were cultured in medium containing the following ingredients Invitrogen): Ham's F12 medium, 10% (v/v) inactivated fetal bovine serum, […] hygromycin B, and […] Geneticin.
2.1.2 CHO hERG cells were grown in Petri dishes containing the above medium and cultured in an incubator of 5% CO2 at 37° C. CHO hERG cells were transferred onto round glass plates in Petri dishes and grown on the same culture medium and culture conditions as above 24 h to 48 h prior to the electrophysiological experiments. The density of CHO hERG cells on each round glass plate must meet the requirements that the vast majority of cells are independent and separate.
2.2 Experimental Solution
The following solutions (recommended by Sophion) were used for electrophysiological recording. The reagents used in this test were provided by Sigma.
2.3 Electrophysiological Recording System
In this experiment, whole-cell current recording was performed using a manual patch clamp system (HEKA EPC-10 signal amplification and digital conversion system, purchased from HEKA Electronic, Germany). The round glass slide of which surface CHO hERG cells were grown on was placed in an electrophysiological recording slot under an inverted microscope. Extracellular fluid was perfused continuously in the recording slot (approximately 1 ml per minute). Conventional whole-cell patch clamp current recording technique was used in the experiment. Unless otherwise specified, the experiments were performed at normal room temperature (25° C.). Cell patch clamp at −80 mV. Cell patch clamp voltage was depolarized to +20 mV to activate hERG potassium channel, and to −50 mV after 5 sec to eliminate inactivation and generate tail currents. The tail current peak was used as a value for hERG current. When the hERG potassium current recorded in the above steps became steady under continuous perfusion of the extracellular fluid in the recording slot, the subject drug to be tested could be added to the perfusion until the inhibition of the hERG current by the drug reached a steady state. Typically, the most recent three consecutive current recording lines were generally used as a measure to determine whether the state was stable. After reaching a steady state, it was perfused with extracellular fluid for washing until the hERG current returned to the value before the drug adding. One or more drugs, or multiple concentrations of the same drug, could be tested on a single cell but it was necessary to rinse with extracellular fluid before testing a different drug. Cisapride (purchased from Sigma) was used as a positive control in the experiments to ensure normal quality of the cells used.
2.4 Treatment and Dilution of Compounds
The compound was first dissolved in DMSO to a concentration of 10 mM and then the compound was diluted 1000-fold to a final test concentration of 10 μM using extracellular fluid.
The final concentration of DMSO in the compound test solution was 0.1%. The test concentration of cisapride as a positive control was 0.1 μM. All stock solutions and test solutions were subjected to regular 5-10 minutes of sonication and shaking to ensure complete dissolution of the compound.
The test data were analyzed by the data analysis software provided by HEKA Patchmaster (V2x73.2), Microsoft Excel and Graphpad Prism 5.0.
A general note: hERG is a cardiac potassium channel; its block is linked to QT prolongation.

The next data set concerns the target T2, CYP3A4 (Homo sapiens, UniProt P08684).
T2 construct: from tissue; host or cells: liver microsomes
In words: Inhibition of CYP enzyme (CYP3A4, midazolam substrate, liver microsomes). It counts as in vitro ADME. As to conditions: human, pH 7.4, midazolam (M) as probe substrate. On the procedure:
Assay 3: Inhibition of CYP Enzyme
1. 0.1 M potassium phosphate buffer (K-buffer), pH 7.4 was preheated;
100 mM K-Buffer: 9.5 mL Stock A and 40.5 mL Stock B were mixed, brought to a total volume of 500 mL with Milli-Q water, and titrated to pH 7.4 of KOH or H3PO4;
Stock A (1 M monobasic potassium phosphate): 136.5 g of monobasic potassium phosphate was dissolved in 1 L of Milli-Q water; and
Stock B (1 M dibasic potassium phosphate): 174.2 g of dibasic potassium phosphate was dissolved in 1 L of Milli-Q water.
2. Serial dilutions of test compounds and reference inhibitors (400×) were prepared in a 96-well plate:
2.1 8 μL of 10 mM test compounds was transferred to 12 μL of ACN. 2.2 A separate inhibitor solution was prepared for reference: 8 μL of inhibitor DMSO stock was added with 12 μL of ACN.
2.3 A 1:3 serial dilution was prepared with a DMSO:ACN mixture (v/v: 40:60).
3. 4×NADPH cofactor (66.7 mg NADPH dissolved in 10 mL 0.1 M K-buffer, pH 7.4) was prepared.
4. 4× substrate (2 mL for each isoform) was prepared as indicated in the table below (Liver microsomes must be added on ice).
5. 0.2 mg/mL liver microsome solution (990 μL of 0.1 M K-buffer was added to each 10 μL of 20 mg/mL) was prepared on ice.
6. 200 μL of 0.2 mg/mL liver microsomes was added on ice to a 96-well plate and then 1 μL of test compound or reference compound was added into corresponding wells.
7. The following solutions were added to a 96-well plate (in duplicate) on ice:
7.1 30 μL of 2× test compounds and reference compound in 0.2 mg/mL liver microsome solution were added;
7.2 15 μL of 4× substrate solution was added.
8. The 96-well assay plate and NADPH solution were pre-heated at 37° C. for 5 minutes.
9. 15 μL of pre-heated 8 mM NADPH solution was added into the assay plates to initiate the reaction.
10. The 3A4 subtype was incubated at 37° C. for 5 min for.
11. The reaction was quenched by adding 120 μL of ACN containing an internal standard.
12. After quenching, the plates were shaked in a vibrator (IKA, MTS 2/4) for 5 min (600 rpm/min) and then centrifuged at 3, 750 rpm for 15 min (Allegra X-12R centrifuge).
13. After centrifugation, 50 μL of the supernatant from each well was taken into a 96-well plate containing 70 μL of wastons water and mixed for LC/MS analysis.
On the technique in general: Liver microsomes are vesicles of endoplasmic reticulum, rich in cytochrome P450 enzymes.

For data set [1] the following is noted: cited from earlier work.
Another data set can be described thus: in vivo. Conditions: male, SD, rat, 10 mg/kg, oral administration of dezocine in rats, Dezocine dosed at 10 mpk.

T1 sequence (Q12809 whole entry): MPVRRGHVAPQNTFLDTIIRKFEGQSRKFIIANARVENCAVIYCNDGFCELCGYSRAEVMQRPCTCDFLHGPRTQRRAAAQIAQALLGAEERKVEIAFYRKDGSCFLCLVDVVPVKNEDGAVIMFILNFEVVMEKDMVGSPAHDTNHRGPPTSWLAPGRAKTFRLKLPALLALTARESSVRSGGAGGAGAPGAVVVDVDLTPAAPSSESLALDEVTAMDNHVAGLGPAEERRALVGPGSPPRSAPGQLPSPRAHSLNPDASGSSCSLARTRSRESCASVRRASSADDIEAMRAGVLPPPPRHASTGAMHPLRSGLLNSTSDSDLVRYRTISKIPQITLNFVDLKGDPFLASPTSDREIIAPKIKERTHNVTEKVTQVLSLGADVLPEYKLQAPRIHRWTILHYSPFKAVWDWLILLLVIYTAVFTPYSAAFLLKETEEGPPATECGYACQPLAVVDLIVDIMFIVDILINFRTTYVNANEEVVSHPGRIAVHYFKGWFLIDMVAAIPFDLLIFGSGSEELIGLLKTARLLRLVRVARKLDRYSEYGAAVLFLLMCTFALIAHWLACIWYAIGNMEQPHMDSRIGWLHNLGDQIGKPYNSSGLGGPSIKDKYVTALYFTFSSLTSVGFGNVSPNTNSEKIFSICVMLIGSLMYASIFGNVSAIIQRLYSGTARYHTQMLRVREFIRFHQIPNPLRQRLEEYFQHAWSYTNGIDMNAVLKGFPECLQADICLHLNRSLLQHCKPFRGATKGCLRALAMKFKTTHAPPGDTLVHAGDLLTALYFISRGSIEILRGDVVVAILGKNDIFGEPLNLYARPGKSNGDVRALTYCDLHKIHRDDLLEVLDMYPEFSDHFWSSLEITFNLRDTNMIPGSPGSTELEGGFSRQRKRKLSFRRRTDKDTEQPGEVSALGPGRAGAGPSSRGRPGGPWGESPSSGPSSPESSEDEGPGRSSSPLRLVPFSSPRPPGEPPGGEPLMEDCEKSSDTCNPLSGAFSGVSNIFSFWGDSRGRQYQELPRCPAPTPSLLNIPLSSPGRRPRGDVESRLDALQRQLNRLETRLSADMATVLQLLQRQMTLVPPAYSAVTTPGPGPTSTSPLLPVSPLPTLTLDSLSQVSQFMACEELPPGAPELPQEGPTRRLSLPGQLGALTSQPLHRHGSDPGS
T2 sequence (P08684 whole entry): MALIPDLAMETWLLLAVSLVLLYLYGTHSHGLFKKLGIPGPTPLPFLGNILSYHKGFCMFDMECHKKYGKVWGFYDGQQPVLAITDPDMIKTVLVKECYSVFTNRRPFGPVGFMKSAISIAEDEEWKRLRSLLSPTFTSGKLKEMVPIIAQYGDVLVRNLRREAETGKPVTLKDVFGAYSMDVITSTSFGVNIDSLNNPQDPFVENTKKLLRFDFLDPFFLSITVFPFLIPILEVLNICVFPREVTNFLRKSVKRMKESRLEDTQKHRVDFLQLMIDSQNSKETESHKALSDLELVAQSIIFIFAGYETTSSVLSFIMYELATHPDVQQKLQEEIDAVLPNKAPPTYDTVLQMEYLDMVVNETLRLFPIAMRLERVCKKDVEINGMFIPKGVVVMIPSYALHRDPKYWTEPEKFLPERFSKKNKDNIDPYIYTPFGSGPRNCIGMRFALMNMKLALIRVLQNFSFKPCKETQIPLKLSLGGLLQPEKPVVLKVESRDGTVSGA
Method for in vivo: LC-MS/MS method was applied for the determination of the drug concentration in plasma at different times after the example compounds were administered via gavage to rats in order to study the pharmacokinetic behavior of the compounds of the disclosure in vivo in rats and evaluate their pharmacokinetic characteristics.
Test animals: healthy adult male SD rats (weight 200-300 g, 3, fasted), provided by SLAC company;
Administration and dosage: 16 mg/kg or 24 mg/kg, 10 mL/kg, 5% 1,2-propanediol (1,2-Propanediol, Shanghai Titan Technology Co., Ltd. Lot No.: P1057349)) was administered via oral gavage to SD rats;
Blood collection: firstly, the animals which were selected to meet the test requirements prior to administration were weighed and labelled. The rats were bound before the blood collection, about 150 μl of blood from each administered rat was taken at predetermined time points via orbital vein (blood was collected before administration and at 0.083, 0.25, 0.5, 1, 2, 4, 6, and 8 h after administration respectively, 9 time points in total). Blood was transferred to a 1.5 ml tube to which K2EDTA was added previously. The collected blood sample was put on wet ice, and centrifuged (2000 g, 5 min under 4° C.) to obtain plasma sample, the whole process of which was completed within 15 minutes after blood collection. All the samples were stored at approximately −70° C. until analysis. […]

On to `C[C@@]12CCCCC[C@@H](Cc3ccc(OC(=O)N4CCC(N5CCCCC5)CC4)cc31)[C@@H]2N` [Compound Z-49], for which the inhibition at 10 μM against hERG potassium channel is 14.4%. Besides, the inhibition at 5 min, 1 μM against CYP3A4 was determined as 7.28%.
Take `C[C@@]12CCCCC[C@@H](Cc3ccc(O)cc31)[C@@H]2N` [Dezocine, dezocine]: the oral bioavailability in data set [1] is at most 5%. In addition, the AUC in “in vivo” is 58.6 ng·h/mL.
